Ki data for 14 molecules are collected here from patent US8163740B2, “6-substituted benzoxazines” (Hoffmann-La Roche Inc., priority 2008, dated 2012).

The structures appear in SMILES notation.

Chain of recombinant human 5-HT5A receptor (P47898 whole entry): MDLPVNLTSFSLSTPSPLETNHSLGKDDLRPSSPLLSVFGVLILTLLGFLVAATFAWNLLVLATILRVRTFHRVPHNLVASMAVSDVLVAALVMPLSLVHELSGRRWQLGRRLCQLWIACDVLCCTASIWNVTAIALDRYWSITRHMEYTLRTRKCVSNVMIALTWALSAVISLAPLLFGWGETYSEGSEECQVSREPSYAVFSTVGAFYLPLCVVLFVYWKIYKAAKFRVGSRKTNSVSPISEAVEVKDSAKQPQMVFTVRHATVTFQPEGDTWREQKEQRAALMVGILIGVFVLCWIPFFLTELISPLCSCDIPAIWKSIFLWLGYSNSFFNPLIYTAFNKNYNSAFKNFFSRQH

For the test, the target named is recombinant human 5-HT5A receptor (Homo sapiens, UniProt P47898). Briefly: [3H]LSD radioligand binding assay. As to conditions: [3H]LSD (approximately 1 nM); membranes from HEK-EBNA cells transiently expressing 5-HT5A; Ki by Cheng-Prussoff equation; read-out: Ki. As for the experimental part:
A [^3H]LSD radioligand binding assay was used to determine the affinity of the compounds for the recombinant human 5-HT5A receptor, in membranes from transiently (cDNA) expressed 5-HT5A receptors in Human Embryonic Kidney-EBNA (HEK-EBNA) cells. Assay buffer consisted of Tris (50 mM) buffer containing 1 mM EGTA, 10 mM MgCl2 (pH 7.4) and 10 μM pargyline. The binding assay was carried out in 96-well-plates in the presence of [^3H]LSD (approximately 1 nM), approximately 2 μg/well of membrane protein, and 0.5 mg of Ysi-poly-1-lysine SPA beads in a final volume of 200 μl of buffer. Non-specific binding was defined using methiothepin 2 μM. Compounds were tested at 10 concentrations. All assays were conducted in duplicate and repeated at least two times. Assay plates were incubated for 120 min at room temperature before centrifugation. Bound ligand was determined using a Packard Topcount scintillation counter. IC50 values were calculated using a non-linear curve fitting program and Ki values calculated using the Cheng-Prussoff equation.
Consider `COc1ccccc1CNC1=Nc2ccc(NC(=O)CN3CCN(C(C)C)CC3)cc2CO1` [Example 29, 2-(4-Isopropyl-piperazin-1-yl)-N-[2-(2-methoxy-benzylamino)-4H-benzo[d][1,3]oxazin-6-yl]-acetamide], for which the Ki worked out at 10.9 nM.
As for `O=S(=O)(Nc1ccc2c(c1)COC(N[C@@H]1CCc3ccccc31)=N2)N1CCCCC1` [Example 30, Piperidine-1-sulfonic acid [2-((R)-indan-1-ylamino)-4H-benzo[d][1,3]oxazin-6-yl]-amide], the figure is 4.2 nM.
`O=S(=O)(Nc1ccc2c(c1)COC(N[C@@H]1CCc3ccccc31)=N2)N1CCOCC1` [Example 31, Morpholine-4-sulfonic acid [2-((R)-indan-1-ylamino)-4H-benzo[d][1,3]oxazin-6-yl]-amide]: the Ki is 4.38 nM.
For `Nc1ccc2c(c1)COC(N[C@@H]1CCCc3ccccc31)=N2` [Example 33, (R)-N^2-(1,2,3,4-Tetrahydro-naphthalen-1-yl)-4H-benzo[d][1,3]oxazine-2,6-diamine], the inhibition constant (Ki) came to 7.85 nM.
For `FC(F)(F)c1cccc(Nc2ccc3c(c2)COC(N[C@@H]2CCc4ccccc42)=N3)n1` [Example 35, N^2-(R)-Indan-1-yl-N^6-(6-trifluoromethyl-pyridin-2-yl)-4H-benzo[d][1,3]oxazine-2,6-diamine], the Ki is 6.16 nM.
As to `O=C(CN1CCOCC1)Nc1ccc2c(c1)COC(N[C@@H]1CCc3ccccc31)=N2` [Example 37, N-[2-((R)-Indan-1-ylamino)-4H-benzo[d][1,3]oxazin-6-yl]-2-morpholin-4-yl-acetamide], the Ki came to 8.74 nM.
`CN1CCN(CC(=O)Nc2ccc3c(c2)COC(N[C@@H]2CCCc4ccccc42)=N3)CC1` [Example 38, 2-(4-Methyl-piperazin-1-yl)-N-{2-[(R)-(1,2,3,4-tetrahydro-naphthalen-1-yl)amino]-4H-benzo[d][1,3]oxazin-6-yl}-acetamide]: the inhibitory constant (Ki) was 3.16 nM.
Regarding `O=C(CN1CCOCC1)Nc1ccc2c(c1)COC(N[C@@H]1CCCc3ccccc31)=N2` [Example 39, 2-Morpholin-4-yl-N-{2-[(R)-(1,2,3,4-tetrahydro-naphthalen-1-yl)amino]-4H-benzo[d][1,3]oxazin-6-yl}-acetamide], the Ki came to 22.8 nM.
As to `COCCNCC(=O)Nc1ccc2c(c1)COC(N[C@@H]1CCCc3ccccc31)=N2` [Example 40, 2-(2-Methoxy-ethylamino)-N-{2-[(R)-(1,2,3,4-tetrahydro-naphthalen-1-yl)amino]-4H-benzo[d][1,3]oxazin-6-yl}-acetamide], the Ki was determined as 33 nM.
Consider `CC(C)(O)CNCC(=O)Nc1ccc2c(c1)COC(N[C@@H]1CCCc3ccccc31)=N2` [Example 41, 2-(2-Hydroxy-2-methyl-propylamino)-N-{2-[(R)-(1,2,3,4-tetrahydro-naphthalen-1-yl)amino]-4H-benzo[d][1,3]oxazin-6-yl}-acetamide], for which the Ki amounted to 33 nM.
Turning to `FC(F)(F)c1ccnc(Nc2ccc3c(c2)COC(N[C@@H]2CCc4ccccc42)=N3)n1` [Example 46, N^2-(R)-Indan-1-yl-N^6-(4-trifluoromethyl-pyrimidin-2-yl)-4H-benzo[d][1,3]oxazine-2,6-diamine], the Ki worked out at 7.1 nM.
As for `Cc1cc(C)nc(Nc2ccc3c(c2)COC(N[C@@H]2CCc4ccccc42)=N3)n1` [Example 47, N^6-(4,6-Dimethyl-pyrimidin-2-yl)-N^2-(R)-indan-1-yl-4H-benzo[d][1,3]oxazine-2,6-diamine], the Ki came to 3.56 nM.
With `CC(=O)Nc1ccc2c(c1)COC(N[C@@H]1CCc3ccccc31)=N2` [Example 48, N-[2-((R)-Indan-1-ylamino)-4H-benzo[d][1,3]oxazin-6-yl]-acetamide], the inhibitory constant (Ki) amounted to 3.63 nM.
For `O=C(CN1CCSCC1)Nc1ccc2c(c1)COC(N[C@@H]1CCc3ccccc31)=N2` [Example 65, N-[2-((R)-Indan-1-ylamino)-4H-benzo[d][1,3]oxazin-6-yl]-2-thiomorpholin-4-yl-acetamide], the Ki turned out to be 7.62 nM.
